Molecular target: UDP-galactopyranose mutase (UGM) (Klebsiella pneumoniae, UniProt Q48485, R384G)
Assay: fluorescence polarization
Type: binding

With UDP-fluorescein the Kd was 90 nM.

From publication PMC2771219 (Journal of molecular biology, 2009)
